EC50 and IC50 data for 23 compounds are collected here from US11584747B2, “Substituted pyridopyrimidinonyl compounds useful as T cell activators” (BRISTOL-MYERS SQUIBB COMPANY, priority 2019, dated 2023).

Assay [1] relates to whole blood (pERK). In words: pERK Whole Blood. The assay is classed as cell-based.
Assay [2] has as its target human DGKα (Homo sapiens (Human), UniProt P23743). The assay is described as follows: DGKα ADPGLO assay (detergent/lipid micelle substrate). The assay is classed as biochemical. Conditions: ADPGLO assay; read-out: DGK alpha ADPGLO IC50. As for the experimental part: DGK Alpha ADPGLO (Truncated) IC50 (uM)
The detergent/lipid micelle was prepared by combining 15 g phosphatidylserine (Avanti 840035P) and 1 g diacylglycerol (8008110) and dissolving into 150 mL chloroform in a 2 L round bottom flask. Chloroform was removed under high vacuum by rotary evaporation. […] The lipid/detergent solution was split into 5 mL aliquots and stored at −80° C.
(In general: ADP-Glo turns the ADP formed in a reaction into a luminescent signal.)

Assay [3] concerns the target human DGKζ (Homo sapiens (Human), UniProt Q13574). The assay is described as follows: DGKζ LIPGLO assay (extruded liposome substrate, ADP-Glo luminescence). The assay is classed as biochemical. The following applies: liposome (LIPGLO) assay; read-out: DGK zeta (liposome assay) IC50.

Sequence of human DGKζ (Q13574 other isoform, or with tags, fused parts or gaps): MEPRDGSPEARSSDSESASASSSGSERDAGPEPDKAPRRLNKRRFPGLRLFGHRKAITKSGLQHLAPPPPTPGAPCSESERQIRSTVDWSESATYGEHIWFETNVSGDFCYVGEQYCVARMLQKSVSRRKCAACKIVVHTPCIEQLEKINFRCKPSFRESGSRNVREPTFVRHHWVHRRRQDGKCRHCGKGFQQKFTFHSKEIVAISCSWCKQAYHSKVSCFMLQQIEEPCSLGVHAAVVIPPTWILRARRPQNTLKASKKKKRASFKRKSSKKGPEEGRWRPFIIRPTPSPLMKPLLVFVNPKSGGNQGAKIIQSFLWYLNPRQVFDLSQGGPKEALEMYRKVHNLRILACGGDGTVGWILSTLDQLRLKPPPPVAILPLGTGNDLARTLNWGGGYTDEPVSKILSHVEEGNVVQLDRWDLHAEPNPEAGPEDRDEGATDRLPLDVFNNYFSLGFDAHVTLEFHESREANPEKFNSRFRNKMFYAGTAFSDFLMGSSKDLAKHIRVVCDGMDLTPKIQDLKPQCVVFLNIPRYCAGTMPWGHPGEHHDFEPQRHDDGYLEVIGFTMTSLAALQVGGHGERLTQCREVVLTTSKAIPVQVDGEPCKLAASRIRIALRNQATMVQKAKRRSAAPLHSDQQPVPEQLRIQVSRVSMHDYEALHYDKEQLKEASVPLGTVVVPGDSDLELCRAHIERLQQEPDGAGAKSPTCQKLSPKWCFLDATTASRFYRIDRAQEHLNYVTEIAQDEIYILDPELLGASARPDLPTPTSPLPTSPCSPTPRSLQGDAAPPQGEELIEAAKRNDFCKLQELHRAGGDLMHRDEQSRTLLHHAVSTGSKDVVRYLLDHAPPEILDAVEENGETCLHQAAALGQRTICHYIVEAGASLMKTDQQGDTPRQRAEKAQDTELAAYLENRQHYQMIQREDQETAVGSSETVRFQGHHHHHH
Sequence of human DGKα (P23743 whole entry, looked up, the tested form may be a part): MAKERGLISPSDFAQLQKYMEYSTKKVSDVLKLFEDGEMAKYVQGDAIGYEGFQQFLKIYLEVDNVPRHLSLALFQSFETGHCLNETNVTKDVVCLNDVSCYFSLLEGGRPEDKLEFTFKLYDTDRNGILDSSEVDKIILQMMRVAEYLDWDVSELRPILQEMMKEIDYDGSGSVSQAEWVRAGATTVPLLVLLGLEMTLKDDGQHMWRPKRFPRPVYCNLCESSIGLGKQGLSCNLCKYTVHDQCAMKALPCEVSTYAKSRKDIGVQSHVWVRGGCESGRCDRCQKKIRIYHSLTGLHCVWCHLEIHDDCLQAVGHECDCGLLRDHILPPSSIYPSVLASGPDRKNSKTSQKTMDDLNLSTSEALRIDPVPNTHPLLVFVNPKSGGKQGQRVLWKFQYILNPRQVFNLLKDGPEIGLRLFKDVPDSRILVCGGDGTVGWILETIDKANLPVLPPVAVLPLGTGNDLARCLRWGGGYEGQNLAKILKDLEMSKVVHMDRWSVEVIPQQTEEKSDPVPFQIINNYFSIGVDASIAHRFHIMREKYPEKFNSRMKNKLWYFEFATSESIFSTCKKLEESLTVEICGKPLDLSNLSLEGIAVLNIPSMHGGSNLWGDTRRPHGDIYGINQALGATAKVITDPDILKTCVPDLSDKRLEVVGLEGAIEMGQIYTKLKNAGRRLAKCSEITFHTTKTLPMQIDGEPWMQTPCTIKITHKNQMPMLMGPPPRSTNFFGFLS

In general, EC50 refers to the concentration giving half of the maximal effect. High values mean a need for much substance, low ones an effect from little substance. The IC50 is the concentration that gives 50% inhibition. Compound `CCC(c1ccc(OCC2COC2)cc1)N1C[C@H](C)N(c2nc(=O)n(C)c3ccc(C#N)nc23)C[C@H]1CC` (stereo partly drawn) [Example 342, 4-((2S,5R)-5-ethyl-2-methyl-4-(1-(4-(oxetan-3-ylmethoxy)phenyl)propyl)piperazin-1-yl)-1-methyl-2-oxo-1,2-dihydropyrido[3,2-d]pyrimidine-6-carbonitrile] showed an EC50 in assay [1] of 7.93 µM. Also, the IC50 amounted to 1.09 µM in assay [2] and 1.2 µM in assay [3].

In turn, `CC(c1ccc(CN2CC3(COC3)C2)cc1)N1C[C@H](C)N(c2nc(=O)n(C)c3ccc(C#N)nc23)C[C@H]1C` (stereo partly drawn) [Example 392, 4-((2S,5R)-4-(1-(4-((2-oxa-6-azaspiro[3.3]heptan-6-yl)methyl)phenyl)ethyl)-2,5-dimethylpiperazin-1-yl)-1-methyl-2-oxo-1,2-dihydropyrido[3,2-d]pyrimidine-6-carbonitrile] yielded an EC50 in assay [1] of 6.89 µM. Also, the concentration for half-maximal inhibition (IC50) turned out to be 2.84 µM in assay [2] and 33.6 µM in assay [3].

Turning to `CC[C@@H]1CN(c2nc(=O)n(C)c3ccc(C#N)nc23)[C@@H](CO)CN1C(C)c1ccc(C(F)(F)F)cc1` (single isomer, unassigned) [Example 411], in assay [1], it took 1.89 µM to reach a half-maximal effect (EC50). For the same compound, the values for the IC50 in assay [2] and in assay [3] were 0.82 µM and 1.24 µM, respectively.

For `CCC(c1c(F)cc(OCC2CC2)cc1F)N1C[C@H](C)N(c2nc(=O)n(C)c3ccc(C#N)nc23)C[C@H]1CC` (stereo partly drawn) [Example 327, 4-((2S,5R)-4-(1-(4-(cyclopropylmethoxy)-2,6-difluorophenyl)propyl)-5-ethyl-2-methylpiperazin-1-yl)-1-methyl-2-oxo-1,2-dihydropyrido[3,2-d]pyrimidine-6-carbonitrile], in assay [1], a half-maximal effect (EC50) was put at 2.07 µM. For the same compound, the IC50 worked out at 0.32 µM in assay [2] and 0.057 µM in assay [3].

In turn, `CC[C@@H]1CN(c2nc(=O)n(C)c3ccc(C#N)nc23)[C@@H](C)CN1C(c1ccc(F)cc1)c1cccc(C(F)F)n1` (stereo partly drawn) [Example 315, 4-((2 S,5R)-4-((6-(difluoromethyl)pyridin-2-yl)(4-fluorophenyl)methyl)-5-ethyl-2-methylpiperazin-1-yl)-1-methyl-2-oxo-1,2-dihydropyrido[3,2-d]pyrimidine-6-carbonitrile] came in with an EC50 in assay [1] of 0.27 µM. Besides, the results for the IC50 in assay [2] and in assay [3] were 0.026 µM and 0.19 µM, respectively.

In assay [1], `CC[C@@H]1CN(c2nc(=O)n(C)c3ccc(C#N)nc23)[C@@H](C)CN1C(c1ccc(OC(C)C)cc1)C(C)C` (stereo partly drawn) [Example 324, 4-((2S,5R)-5-ethyl-4-(1-(4-isopropoxyphenyl)-2-methylpropyl)-2-methylpiperazin-1-yl)-1-methyl-2-oxo-1,2-dihydropyrido[3,2-d]pyrimidine-6-carbonitrile] returned an EC50 of 4.21 µM. The IC50 in assay [2] worked out at 0.85 µM; in assay [3], 0.2 µM.

With `CCC(c1ccc(OCC2CN(C)C2)cc1)N1C[C@H](C)N(c2nc(=O)n(C)c3ccc(C#N)nc23)C[C@H]1CC` (stereo partly drawn) [Example 343, 4-((2 S, 5R)-5-ethyl-2-methyl-4-(1-(4-((1-methylazetidin-3-yl)methoxy)phenyl)propyl)piperazin-1-yl)-1-methyl-2-oxo-1,2-dihydropyrido[3,2-d]pyrimidine-6-carbonitrile], in assay [1], the EC50 amounted to 0.073 µM. The IC50 was 0.74 µM in assay [2] and 6.33 µM in assay [3].

Turning to `CC[C@@H]1CN(c2nc(=O)n(C)c3ccc(C#N)nc23)[C@@H](C)CN1C(c1nc(C2CC2)no1)C(C)C` (stereo partly drawn) [Example 365, 4-((2S,5R)-4-(1-(3-cyclopropyl-1,2,4-oxadiazol-5-yl)-2-methylpropyl)-5-ethyl-2-methylpiperazin-1-yl)-1-methyl-2-oxo-1,2-dihydropyrido[3,2-d]pyrimidine-6-carbonitrile], the EC50 in assay [1] came to 4.41 µM. For the same compound, the IC50 was found to be 0.016 µM in assay [2] and 0.021 µM in assay [3].

Compound `CCC(c1ccc(C2OCCO2)cc1)N1C[C@H](C)N(c2nc(=O)n(C)c3ccc(C#N)nc23)C[C@H]1CC` (stereo partly drawn) [Example 331, 4-((2S,5R)-4-(1-(4-(1,3-dioxolan-2-yl)phenyl)propyl)-5-ethyl-2-methylpiperazin-1-yl)-1-methyl-2-oxo-1,2-dihydropyrido[3,2-d]pyrimidine-6-carbonitrile] registered an EC50 in assay [1] of 0.94 µM. In addition, the IC50 came to 0.038 µM in assay [2] and 0.033 µM in assay [3].

Consider `CCC(c1ccc(OCC2COC2)cc1)N1C[C@H](C)N(c2nc(=O)n(C)c3ccc(C#N)nc23)C[C@H]1CC` (stereo partly drawn) [Example 341, 4-((2S,5R)-5-ethyl-2-methyl-4-(1-(4-(oxetan-3-ylmethoxy)phenyl)propyl)piperazin-1-yl)-1-methyl-2-oxo-1,2-dihydropyrido[3,2-d]pyrimidine-6-carbonitrile], for which the EC50 in assay [1] was determined as 2.98 µM. Moreover, the IC50 in assay [2] was determined as 0.061 µM; in assay [3] it was 0.13 µM.

In assay [1], `CC[C@@H]1CN(c2nc(=O)n(C)c3ccc(C#N)nc23)[C@@H](C)CN1C(C)c1ccc(C2CCOCC2)cc1` (stereo partly drawn) [Example 329, 4-((2 S,5R)-5-ethyl-2-methyl-4-(1-(4-(tetrahydro-2H-pyran-4-yl)phenyl)ethyl)piperazin-1-yl)-1-methyl-2-oxo-1,2-dihydropyrido[3,2-d]pyrimidine-6-carbonitrile] registered an EC50 of 1.56 µM. Besides, the IC50 is 5.29 µM in assay [2] and 0.74 µM in assay [3].

Consider `CCC(c1ccc(C(F)(F)F)cc1)N1C[C@H](C)N(c2nc(=O)n(C)c3ccc(C#N)nc23)C[C@H]1COC` (single isomer, unassigned) [Example 399], for which the EC50 in assay [1] is 20 µM. Besides, the IC50 in assay [2] is 0.16 µM; in assay [3] it was 0.7 µM.

In assay [1], `CCC(N1C[C@H](C)N(c2nc(=O)n(C)c3ccc(C#N)nc23)C[C@H]1C)C12CC(C(F)(F)F)(C1)C2` (single isomer, unassigned) [Example 448] gave an EC50 of 20 µM. In addition, the IC50 in assay [2] was 13.4 µM; in assay [3] it was 5.14 µM.

On to `COC[C@H]1CN(C(C)c2ccc(C(F)(F)F)cc2)[C@H](C)CN1c1nc(=O)n(C)c2ccc(C#N)nc12` (single isomer, unassigned) [Example 409], for which the EC50 in assay [1] came to 20 µM. In addition, the figures for the IC50 in assay [2] and in assay [3] were 0.072 µM and 1.08 µM, respectively.

`CCC(c1ccc(F)c(F)c1)N1C[C@H](C)N(c2nc(=O)n(C)c3ccc(C#N)nc23)C[C@H]1CC` (stereo partly drawn) [Example 320, 4-((2S,5R)-4-(1-(3,4-difluorophenyl)propyl)-5-ethyl-2-methylpiperazin-1-yl)-1-methyl-2-oxo-1,2-dihydropyrido[3,2-d]pyrimidine-6-carbonitrile] registered an EC50 in assay [1] of 0.93 µM. In addition, the IC50 in assay [2] is 0.42 µM; in assay [3] it was 0.62 µM.

As to `CC[C@@H]1CN(c2nc(=O)n(C)c3ccc(C(F)F)nc23)[C@@H](C)CN1C(C)c1ccc(C(F)(F)F)cc1` (stereo partly drawn) [Example 441, 6-(difluoromethyl)-4-((2S,5R)-5-ethyl-2-methyl-4-(1-(4-(trifluoromethyl)phenyl)ethyl)piperazin-1-yl)-1-methylpyrido[3,2-d]pyrimidin-2(1H)-one], it took 0.7 µM to reach a half-maximal effect in assay [1] (EC50). The results for the IC50 in assay [2] and in assay [3] were 0.19 µM and 26.9 µM, respectively.

`CC[C@H]1CN(C(C)c2ccc(C(F)(F)F)cc2)[C@H](CC)CN1c1nc(=O)n(C)c2ccc(OC(F)F)nc12` (stereo partly drawn) [Example 445, 4-((2S,5R)-2,5-Diethyl-4-(1-(4-(trifluoromethyl)phenyl)ethyl)piperazin-1-yl)-6-(difluoromethoxy)-1-methylpyrido[3,2-d]pyrimidin-2(1H)-one] came in with an EC50 in assay [1] of 9.59 µM. In addition, the IC50 in assay [2] was 0.95 µM; in assay [3], 2.21 µM.

Consider `CC[C@@H]1CN(c2nc(=O)[nH]c3ccc(C#N)nc23)[C@@H](C)CN1C(C)c1ccc(C(F)(F)F)cc1` (single isomer, unassigned) [Example 414], for which the EC50 in assay [1] was found to be 0.16 µM. For the same compound, the IC50 amounted to 1.49 µM in assay [2] and 11.3 µM in assay [3].

On to `CCC(c1ccc(OCC2CCOCC2)cc1)N1C[C@H](C)N(c2nc(=O)n(C)c3ccc(C#N)nc23)C[C@H]1CC` (stereo partly drawn) [Example 337, 4-((2S,5R)-5-ethyl-2-methyl-4-(1-(4-((tetrahydro-2H-pyran-4-yl)methoxy)phenyl)propyl)piperazin-1-yl)-1-methyl-2-oxo-1,2-dihydropyrido[3,2-d]pyrimidine-6-carbonitrile], for which, in assay [1], the EC50 came out at 0.054 µM. The IC50 in assay [2] turned out to be 0.081 µM; in assay [3], 0.1 µM.

`CCC(c1ccc(OCCC(F)(F)F)cc1)N1C[C@H](C)N(c2nc(=O)n(C)c3ccc(C#N)nc23)C[C@H]1CC` (single isomer, unassigned) [Example 336] returned an EC50 in assay [1] of 20 µM. The IC50 was determined as 0.48 µM in assay [2] and 1.1 µM in assay [3].

As for `CCC(c1ccc(OCCC2CC2)cc1)N1C[C@H](C)N(c2nc(=O)n(C)c3ccc(C#N)nc23)C[C@H]1CC` (stereo partly drawn) [Example 340, 4-((2S,5R)-4-(1-(4-(2-cyclopropylethoxy)phenyl)propyl)-5-ethyl-2-methylpiperazin-1-yl)-1-methyl-2-oxo-1,2-dihydropyrido[3,2-d]pyrimidine-6-carbonitrile], in assay [1], the EC50 was determined as 12.9 µM. The results for the IC50 in assay [2] and in assay [3] were 6.31 µM and 15.9 µM, respectively.

The compound `CCC(c1ccc(C(C)(C)C#N)cc1)N1C[C@H](C)N(c2nc(=O)n(C)c3ccc(C#N)nc23)C[C@H]1CC` (stereo partly drawn) [Example 317, 4-((2S,5R)-4-(1-(4-(2-cyanopropan-2-yl)phenyl)propyl)-5-ethyl-2-methylpiperazin-1-yl)-1-methyl-2-oxo-1,2-dihydropyrido[3,2-d]pyrimidine-6-carbonitrile] had an EC50 in assay [1] of 0.18 µM. Moreover, the half-maximal inhibitory concentration (IC50) in assay [2] came to 0.017 µM; in assay [3] it was 0.026 µM.

`[2H]C([2H])([2H])n1c(=O)nc(N2C[C@@H](CC)N(C(C)c3ccc(C(F)(F)F)cc3)C[C@@H]2C)c2nc(C#N)ccc21` (single isomer, unassigned) [Example 419]: in assay [1], the EC50 worked out at 20 µM. The figures for the IC50 in assay [2] and in assay [3] were 0.033 µM and 0.055 µM, respectively.
